Assay results as given in patent US20250376474A1, “RET-LDD PROTEIN DEGRADERS” (Bristol-Myers Squibb Company, priority 2022, published 2025).

What follows are molecules tested against T1, CCDC6-RET fusion expressing papillary thyroid carcinoma (TPC-1) cell line (Homo sapiens, UniProt P07949) (assay: Cellular RET degradation assay (AlphaLISA Surefire Ultra, tRET) in TPC-1/CCDC6-RET cells). Settings: TPC1, maximum % degradation (YMax) from 4-parameter logistic fit, parental TPC-1/CCDC6-RET cells, 24 hrs treatment, read-out: Cell Density TPC-1/CCDC6-RET YMax (%).
T1 construct: RET protein abundance (and therefore degradation) directly corresponds to luminescence intensity; CCDC6 (fusion partner, N-terminal part); endogenous in cells; host or cells: TPC-1 (papillary thyroid carcinoma), parental; the other entry of the earlier key: CCDC6 (Q16204, Coiled-coil domain-containing protein 6)
T1 sequence (P07949 with tags, fused parts or gaps): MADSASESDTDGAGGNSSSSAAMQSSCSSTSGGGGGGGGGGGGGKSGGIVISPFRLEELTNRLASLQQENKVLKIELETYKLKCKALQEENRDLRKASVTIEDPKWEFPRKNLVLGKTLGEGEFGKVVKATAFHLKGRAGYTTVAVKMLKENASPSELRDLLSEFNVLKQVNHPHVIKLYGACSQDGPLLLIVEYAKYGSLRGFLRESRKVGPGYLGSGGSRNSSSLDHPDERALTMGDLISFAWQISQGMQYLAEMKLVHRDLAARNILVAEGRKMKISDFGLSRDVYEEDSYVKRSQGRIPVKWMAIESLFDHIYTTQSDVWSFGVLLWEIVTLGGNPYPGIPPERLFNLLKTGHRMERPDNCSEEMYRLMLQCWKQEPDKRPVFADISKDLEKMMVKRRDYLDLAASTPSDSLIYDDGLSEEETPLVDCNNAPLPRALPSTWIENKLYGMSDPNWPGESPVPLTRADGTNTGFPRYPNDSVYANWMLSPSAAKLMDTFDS
Assay type: cell-based
Method: Cellular RET degradation compound potency was determined using the bead-based luminescent amplification assay—AlphaLISA Surefire Ultra Detection Kit (Perkin-Elmer). The CCDC6-RET fusion expressing papillary thyroid carcinoma (TPC-1) cell line was selected for screening of potential degraders: Parental (TPC-1/CCDC6-RET). Cells were plated in 384 well culture plates (Greiner Bio-One) at 10,000 cells/well in 50ul/well DMEM (Fisher Scientific) with 2% FBS serum (Gibco). After cellular adhesion (4 hrs), cells were treated with compound by dispensing 25nl of serially diluted compound (1:3 dilution: 1 ipoint) directly into the cell culture wells using an Echo-655 acoustic liquid dispenser (Beckman). Low normalization wells were media only and high normalization wells were cells treated with DMSO only. Treated cell plates were placed in an incubator at 37C and 5% CO2 for 24 hrs. At 24 hrs, cell media was removed by a FELIX automated liquid hander (Analytik Jena) and 25ul of cell lysis buffer (provided in AlphaLisa kit) was added to each well. 5ul cell lysate were transferred into a 384-well microplate (Perkin Elmer) before addition of 2.5ul AlphaLISA Acceptor Bead mix. The plates were sealed and kept at room temperature for 1 hr before addition of donor bead mixture. Donor bead addition was performed in the dark and incubated for >1 hr before AlphaLISA luminescence was measured on an Envision plate reader with an Alphascreen aperture at RT (excitation 680 nm, emission 615 nm). RET protein abundance (and therefore degradation) directly corresponds to luminescence intensity.
Intensities were normalized relative to the average values from 16 wells containing media alone (blank-low) and 16 wells containing cells +DMSO (high). % Degradation for each well was determined using the standard equation, where
DC50 (IC50) values for each compound tested are calculated by analyzing plots of % degradation versus compound concentration, and fitting to the standard 4-parameter logistic curve where,
Top and bottom are the % degradation at infinitely large and infinitely small compound concentrations, respectively, while Halfmax is the compound concentration yielding % degradation corresponding tob½ Top-Bottom, and N is the Hill coefficient. DC50 values are calculated according to the relationship,
Compound replicates were performed in independent assays. Maximum degradation (YMax) was defined as the maximal % degradation value from the 4-parameter logistic equation, as previously described.
The half-maximal degradation concentration (DC50) and % degradation response (Ymax) are included in Table 3.
COCc1ccc(NC(=O)c2c(C#CC3CCN(C(=O)CCCCN4CCC(c5ccc6c(c5)C(=O)N(C5CCC(=O)NC5=O)C6)CC4)CC3)c(C(C)C)n3ncnc(N)c23)cc1 (stereo not shown) [Example 7, 4-amino-6-((1-(5-(4-(2-(2,6-dioxopiperidin-3-yl)-3-oxoisoindolin-5-yl)piperidin-1-yl)pentanoyl)piperidin-4-yl)ethynyl)-7-isopropyl-N-(4-(methoxymethyl)phenyl)pyrrolo[2,1-f][1,2,4]triazine-5-carboxamide] was tested, and the Dmax was 90.1%. COCc1ccc(NC(=O)c2c(C#CC3CCN(C(=O)CCCCN4CCC(c5ccc6c(c5)CN(C5CCC(=O)NC5=O)C6=O)CC4)CC3)c(C(C)C)n3ncnc(N)c23)cc1 (stereo not shown) [Example 8, 4-amino-6-((1-(5-(4-(2-(2,6-dioxopiperidin-3-yl)-1-oxoisoindolin-5-yl)piperidin-1-yl)pentanoyl)piperidin-4-yl)ethynyl)-7-isopropyl-N-(4-(methoxymethyl)phenyl)pyrrolo[2,1-f][1,2,4]triazine-5-carboxamide] was tested, and the Dmax was 86.3%. In the case of COCc1ccc(NC(=O)c2c(C#CC3CCN(C(=O)CCCCCCN4CCC(c5ccc6c(c5)C(=O)N(C5CCC(=O)NC5=O)C6)CC4)CC3)c(C(C)C)n3ncnc(N)c23)cc1 (stereo not shown) [Example 4, 4-amino-6-((1-(7-(4-(2-(2,6-dioxopiperidin-3-yl)-3-oxoisoindolin-5-yl)piperidin-1-yl)heptanoyl)piperidin-4-yl)ethynyl)-7-isopropyl-N-(4-(methoxymethyl)phenyl)pyrrolo[2,1-f][1,2,4]triazine-5-carboxamide], the Dmax is reported as 97.6%. COCc1ccc(NC(=O)c2c(C#CC3CCN(C(=O)CCN4CCC5(CC4)CCN(c4ccc6c(c4)CN(C4CCC(=O)NC4=O)C6=O)CC5)CC3)c(C(C)C)n3ncnc(N)c23)cc1 (stereo not shown) [Example 10, 4-amino-6-((1-(3-(9-(2-(2,6-dioxopiperidin-3-yl)-1-oxoisoindolin-5-yl)-3,9-diazaspiro[5.5]undecan-3-yl)propanoyl)piperidin-4-yl)ethynyl)-7-isopropyl-N-(4-(methoxymethyl)phenyl)pyrrolo[2,1-f][1,2,4]triazine-5-carboxamide] gave a Dmax of 78.9%. For COCc1ccc(NC(=O)c2c(C#CC3CCN(C(=O)CCCCCCN4CCC(c5ccc6c(c5)CN(C5CCC(=O)NC5=O)C6=O)CC4)CC3)c(C(C)C)n3ncnc(N)c23)cc1 (stereo not shown) [Example 2, 4-amino-6-((1-(7-(4-(2-(2,6-dioxopiperidin-3-yl)-1-oxoisoindolin-5-yl)piperidin-1-yl)heptanoyl)piperidin-4-yl)ethynyl)-7-isopropyl-N-(4-(methoxymethyl)phenyl)pyrrolo[2,1-f][1,2,4]triazine-5-carboxamide], the Dmax was 87.4%. Work on COCc1ccc(NC(=O)c2c(C#CC3CCN(C(=O)CCCCCCN4CCN(c5ccc6c(c5)C(=O)N(C5CCC(=O)NC5=O)C6)CC4)CC3)c(C(C)C)n3ncnc(N)c23)cc1 (stereo not shown) [Example 3, 4-amino-6-((1-(7-(4-(2-(2,6-dioxopiperidin-3-yl)-3-oxoisoindolin-5-yl)piperazin-1-yl)heptanoyl)piperidin-4-yl)ethynyl)-7-isopropyl-N-(4-(methoxymethyl)phenyl)pyrrolo[2,1-f][1,2,4]triazine-5-carboxamide] yielded a Dmax of 91.8%. With COCc1ccc(NC(=O)c2c(C#CC3CCN(C(=O)CCCCN4CCN(c5ccc6c(c5)C(=O)N(C5CCC(=O)NC5=O)C6)CC4)CC3)c(C(C)C)n3ncnc(N)c23)cc1 (stereo not shown) [Example 6, 4-amino-6-((1-(5-(4-(2-(2,6-dioxopiperidin-3-yl)-3-oxoisoindolin-5-yl)piperazin-1-yl)pentanoyl)piperidin-4-yl)ethynyl)-7-isopropyl-N-(4-(methoxymethyl)phenyl)pyrrolo[2,1-f][1,2,4]triazine-5-carboxamide] the Dmax was 97.3%. COCc1ccc(NC(=O)c2c(C#CC3CCN(C(=O)CCCCCCN4CCN(c5ccc6c(c5)CN(C5CCC(=O)NC5=O)C6=O)CC4)CC3)c(C(C)C)n3ncnc(N)c23)cc1 (stereo not shown) [Example 1] was tested, and the Dmax was 84.5%. Molecule COCc1ccc(NC(=O)c2c(C#CC3CCN(C(=O)CCCCN4CCN(c5ccc6c(c5)CN(C5CCC(=O)NC5=O)C6=O)CC4)CC3)c(C(C)C)n3ncnc(N)c23)cc1 (stereo not shown) [Example 5, 4-amino-6-((1-(5-(4-(2-(2,6-dioxopiperidin-3-yl)-1-oxoisoindolin-5-yl)piperazin-1-yl)pentanoyl)piperidin-4-yl)ethynyl)-7-isopropyl-N-(4-(methoxymethyl)phenyl)pyrrolo[2,1-f][1,2,4]triazine-5-carboxamide] has a Dmax of 79.9%. COCc1ccc(NC(=O)c2c(C#CC3CCN(C(=O)CN4CCC5(CC4)CCN(c4ccc6c(c4)CN(C4CCC(=O)NC4=O)C6=O)CC5)CC3)c(C(C)C)n3ncnc(N)c23)cc1 (stereo not shown) [Example 9, 4-amino-6-((1-(2-(9-(2-(2,6-dioxopiperidin-3-yl)-1-oxoisoindolin-5-yl)-3,9-diazaspiro[5.5]undecan-3-yl)acetyl)piperidin-4-yl)ethynyl)-7-isopropyl-N-(4-(methoxymethyl)phenyl)pyrrolo[2,1-f][1,2,4]triazine-5-carboxamide] showed a Dmax of 79.1%.
